Measurements from patent publication US6461587B1, “Perfluoroalkylamides, their production and their use in diagnosis” (Schering Aktiengesellschaft, priority 1999, dated 2002).

Assays:
[1] = Lymph node visualization (MRT) after interstitial administration of contrast medium; type: in vivo; settings: guinea pigs, 10 μmol of Gd/kg s.c., 15 or 30 minutes, T1-weighted gradient echo images
Experimental: MR images of popliteal, inguinal and iliac lymph nodes both before (Precontrast) and 15 or 30 minutes after subcutaneous administration (guinea pigs, hind paw, interdigital space) of the substance of Example 5e or of Example 3c (in each case 10 μmol of Gd/kg of body weight) were taken.

[2] = Retention of the opacifying metal at the injection site; type: in vivo; settings: guinea pig, 10 μmol Gd/kg s.c.
Source text: After s.c. administration of 10 μmol of total gadolinium/kg of body weight in the guinea pig paw, the retention of metal at the injection site was studied at different times.

[3] = Organ distribution of the contrast medium after s.c. administration; type: in vivo; settings: guinea pigs, 10 μmol Gd/kg s.c., 7 days after administration
Experimental: After subcutaneous administration of 10 μmol of total gadolinium/kg of body weight in the hind paw of stimulated guinea pigs (complete Freund adjuvant; 0.1 ml i.m in the right and left lower leg in each case; 2 weeks before the test are administered), the retention of the metal in the […] as in the kidneys and spleen was examined 7 days administration.

[4] = Relaxivity of compounds according to the invention; type: physicochemical; settings: 0.47 T and 37° C.
Source text: Relaxivity of Compounds According to the Invention

[5] = Compatibility of compounds according to the invention (LD 50); settings: in vivo
Source text: Compatibility of Compounds According to the Invention

[6] = Blood level and pharmacokinetics after intravenous administration, in vivo comparison with Dy-DTPA; settings: rats, i.v. 100 μmol/kg; for Vd ss / α-t½ / β-t½: n=3; for blood concentrations compared with Dy-DTPA: all examination times 1-120 minutes p.i.
Experimental: Three 350 g male (Schering-SPF) rats are used as test animals. 0.33-0.37 ml (in each case 100 mmol/L) of the following contrast medium solution is administered intravenously to each animal: mixture of 1 part each of a perfluoroalkyl-containing compound and the dysprosium-complex of (Dy-DTPA). The administered dose is in each case 100 μmol of Gd or Dy/kg of body weight. Via a catheter in the common carotid artery, blood samples are taken at the following times: 1, 3, 5, 10, 15, 20, 30, 45, 60, 90, 120 minutes p.i. In the blood samples that are obtained, in each case the concentrations of gadolinium (Gd) and dysprosium (Dy) are measured in parallel using atomic emission spectrometry (ICP-AES). The proportion of the injected compounds (Gd-containing perfluoroalkyl-containing compound and Dy-containing comparison substance) that remains in the blood space can be compared in the same animal by the different labeling. The α- and β-half life, the distribution volume and the total clearance can be calculated from the blood concentrations using special software (Topfit program). […]

[7] = Table 1: plasma, mixture of 5e and Dy-DTPA
[8] = Table 2: plasma, mixture of 4c and Dy-DTPA

Gadolinium Content at the Injection Site (Paw) ([2]; 7 days p.i.) | Gadolinium Content in Kidneys [3] | Gadolinium Content in Liver [3] | Gadolinium Content in Spleen [3] | Compound | MR signal in popliteal, inguinal and iliac lymph nodes of the injected body side vs non-injected side or precontrast [1] | Gadolinium Content at the Injection Site (Paw) ([2]; 30 min. p.i.) | Gadolinium Content at the Injection Site (Paw) ([2]; 90 min. p.i.) | R1 in Plasma [4] | R1 in Water [4] | LD 50 [5] | Vd ss [6, 7] | α-t½ [6, 7] | β-t½ [6, 7] | Vd ss [6, 8] | α-t½ [6, 8] | β-t½ [6, 8] | distribution volume compared to Dy-DTPA [6] | blood concentrations compared with Dy-DTPA [6]
1.3% of dose | 0.2% of dose | 6.2% of dose | 0.0% of dose | CC(C(=O)NCC(=O)NCCOCCC(F)(F)C(F)(F)C(F)(F)C(F)(F)C(F)(F)C(F)(F)C(F)(F)C(F)(F)F)N1CCN(CC(=O)[O-])CCN(CC(=O)[O-])CCN(CC(=O)[O-])CC1.[Gd+3] (stereo not shown) [Example 7, 1,4,7-Tris(carboxylatomethyl)-10-[-(3-aza-4-oxo-hexan-5-ylic)-acid-N-(1H,1H,2H,2H,4H,4H,5H,5H-3-oxa-perfluorotridecyl)-amide]-1,4,7, 10-tetraaza-cyclododecane, gadolinium complex] |  | 54.2% of dose | 36.8% of dose | 21.0 L/mmol/s | 18.1 L/mmol/s |  |  |  |  |  |  |  |  | 
0.6% of dose | 0.1% of dose | 1.5% of dose | 0.0% of dose | 1,4,7-Tris(carboxylatomethyl)-10-{(3-aza-4-oxo-hexan-5-ylic)-acid- [N-4,7,10,17-tetraoxa-14-aza-17-oxo-C20-C28-hepta-decafluoro)-heptacosyl]-amide}-1,4,7,10-tetraazacyclododecane, gadolinium complex [Example 6b] |  | 66.4% of dose | 26.1% of dose | 13.3 L/mmol/s | 11.6 L/mmol/s |  |  |  |  |  |  |  |  | 

Further lines, the compound ahead of its results:

Compound | Gadolinium Content at the Injection Site (Paw) ([2]; 7 days p.i.) | Gadolinium Content in Kidneys [3] | Gadolinium Content in Liver [3] | Gadolinium Content in Spleen [3] | MR signal in popliteal, inguinal and iliac lymph nodes of the injected body side vs non-injected side or precontrast [1] | Gadolinium Content at the Injection Site (Paw) ([2]; 30 min. p.i.) | Gadolinium Content at the Injection Site (Paw) ([2]; 90 min. p.i.) | R1 in Plasma [4] | R1 in Water [4] | LD 50 [5] | Vd ss [6, 7] | α-t½ [6, 7] | β-t½ [6, 7] | Vd ss [6, 8] | α-t½ [6, 8] | β-t½ [6, 8] | distribution volume compared to Dy-DTPA [6] | blood concentrations compared with Dy-DTPA [6]
CC(C(=O)NCC(=O)N(CCOCCO)CCOCCC(F)(F)C(F)(F)C(F)(F)C(F)(F)C(F)(F)C(F)(F)C(F)(F)C(F)(F)F)N1CCN(CC(=O)[O-])CCN(CC(=O)[O-])CCN(CC(=O)[O-])CC1.[Gd+3] (stereo not shown) [Example 3c] | 1.7% of dose | 0.1% of dose | 1.3% of dose | 0.0% of dose | strong signal increase | 6.5% of dose | 4.9% of dose | 21.0 L/mmol/s | 14.0 L/mmol/s | 8 mmol of Gd/kg of body weight |  |  |  |  |  |  |  | 
Dy-DTPA [reference compound] |  |  |  |  |  |  |  |  |  |  | 0.29 ± 0.09 L/kg | 2.19 ± 0.59 min | 62.59 ± 37.47 min | 0.15 ± 0.03 L/kg | 0.89 ± 0.32 min | 21.37 ± 2.18 min |  | 
CC(C(=O)NCC(=O)N(CCOCCC(F)(F)C(F)(F)C(F)(F)C(F)(F)C(F)(F)C(F)(F)C(F)(F)C(F)(F)F)CC(O)CO)N1CCN(CC(=O)[O-])CCN(CC(=O)[O-])CCN(CC(=O)[O-])CC1.[Gd+3] (stereo not shown) [Example 2c] |  |  |  |  |  |  |  | 19.6 L/mmol/s | 11.8 L/mmol/s | 3 mmol of Gd/kg of body weight |  |  |  |  |  |  |  | 
CC(C(=O)NCC(=O)N(CCO)CCOCCC(F)(F)C(F)(F)C(F)(F)C(F)(F)C(F)(F)C(F)(F)C(F)(F)C(F)(F)F)N1CCN(CC(=O)[O-])CCN(CC(=O)[O-])CCN(CC(=O)[O-])CC1.[Gd+3] (stereo not shown) [Example 4c] |  |  |  |  |  |  |  | 21.9 L/mmol/s | 14.4 L/mmol/s | 0.3 mmol of Gd/kg of body weight |  |  |  | 0.12 ± 0.00 L/kg | 1.01 ± 0.32 min | 79.68 ± 12.26 min | significantly smaller distribution volume | significantly higher blood concentrations
CC(C(=O)NCC(=O)NCCNS(=O)(=O)C(F)(F)C(F)(F)C(F)(F)C(F)(F)C(F)(F)C(F)(F)C(F)(F)C(F)(F)F)N1CCN(CC(=O)[O-])CCN(CC(=O)[O-])CCN(CC(=O)[O-])CC1.[Gd+3] (stereo not shown) [Example 10c, 1,4,7-Tris(carboxylatomethyl)-10-{(3-aza-4-oxo-hexan-5-ylic)-acid-N-[(2-perfluorooctylsulfonylamino)-ethyl]-amide}-1,4,7,10-tetraazacyclododecane, gadolinium complex] |  |  |  |  |  |  |  | 27.8 L/mmol/s | 21.6 L/mmol/s |  |  |  |  |  |  |  |  | 
COCCOCCOCCOCCOCCN(CCOCCC(F)(F)C(F)(F)C(F)(F)C(F)(F)C(F)(F)C(F)(F)C(F)(F)C(F)(F)F)C(=O)CNC(=O)C(C)N1CCN(CC(=O)[O-])CCN(CC(=O)[O-])CCN(CC(=O)[O-])CC1.[Gd+3] (stereo not shown) [Example 5e] |  |  |  |  | strong signal increase | 8.5% of dose | 9.4% of dose | 30.3 L/mmol/s | 12.4 L/mmol/s | 15 mmol of Gd/kg of body weight | 0.16 ± 0.03 L/kg | 3.77 ± 0.75 min | 102.29 ± 24.48 min |  |  |  | significantly smaller distribution volume | significantly higher blood concentrations
COCCN(CCOCCC(F)(F)C(F)(F)C(F)(F)C(F)(F)C(F)(F)C(F)(F)C(F)(F)C(F)(F)F)C(=O)CNC(=O)C(C)N1CCN(CC(=O)[O-])CCN(CC(=O)[O-])CCN(CC(=O)[O-])CC1.[Gd+3] (stereo not shown) [Example 1c] |  |  |  |  |  |  |  | 25.7 L/mmol/s | 13.8 L/mmol/s |  |  |  |  |  |  |  |  | 
